Assay results published in patent US20090068059A1, “METHOD OF PREVENTING HYDROGEN SULFIDE ODOR GENERATION IN AN AQUEOUS MEDIUM” (priority 2007, published 2009).
Several values for one entry are separate records, joined by “and”; a condition that tells them apart may be missing. Equal entries are not always repeated. Structures can show the parent of a compound that is named as a salt.

System: sulfate reducing bacteria (SRB)
Assay: Serum bottle test: control of H2S generation and sulfate reducing bacteria in synthetic nutrient medium
Type: cell-based
Protocol: The test protocol was as follows: 100 mL serum bottles were filled with synthetic nutrient medium, then stoppered, capped, and autoclaved, and allowed to cool to at least 35 ° C. Using a 1 mL syringe with needle, the treatment was added at desired dosages to prepared serum bottles (triplicates of each dosage). No treatment was added for baseline controls. At least 6 baseline serum bottles were used. Using a 1 mL syringe with needle, 0.1 mL of prepared culture was added to each serum bottle. Next, a 10^10 cells/ml concentration of the sulfate reducers was prepared (using autoclaved synthetic nutrient medium) inside an anaerobic chamber. Using a 1 ml syringe with needle, 0.1 ml of the prepared sulfate reducers culture was added to each serum bottle. The bottles were then incubated at the desired temperature. The baseline dissolved sulfide levels were then measured to determine if the samples were ready for efficacy analysis. Using a 30 mL syringe with needle, 30 mL of sample was removed from each serum bottle. About 25 mL of the sample was added to a 30 mL bottle containing 0.125 mL zinc acetate solution, followed by adding 1 mL of 1N NaOH. The sulfide in the fixed sample was then measured. The remaining 5 mL of sample in the syringe was used for pH determination.

[1] = H2S generation, inhibitor concentration 1 ppm
[2] = H2S generation, inhibitor concentration 2.5 ppm
[3] = H2S generation, inhibitor concentration 5 ppm
[4] = inhibitor concentration 2.5 ppm
[5] = inhibitor concentration 100 ppm

SMILES | inhibition at 1 ppm [1] | % Inhibition (H2S generation, inhibitor concentration 1 ppm, dihydrochloride) | inhibition at 2.5 ppm [2] | inhibition at 5 ppm [3] | H2S concentration (ppm) [4] | H2S concentration (ppm) (inhibitor concentration 5 ppm) | inhibition at 25 ppm (inhibitor concentration 25 ppm) | inhibition at 50 ppm (inhibitor concentration 50 ppm) | inhibition at 100 ppm [5] | % Inhibition [1] | % Inhibition [2] | % Inhibition [3] | H2S concentration (ppm) (inhibitor concentration 1 ppm) | % H2S Inhibition (inhibitor concentration 25 ppm) | % H2S Inhibition (inhibitor concentration 50 ppm) | % H2S Inhibition [5]
[H]/N=C(\N/C(=N/[H])NCCCCCCNC(=N)NC(=N)Nc1ccc(Cl)cc1)Nc1ccc(Cl)cc1 [Chlorhexidine dihydrochloride] | 96% | 98% and 95% | 100% | 100% | 0 ppm | 0 ppm | 99% | 99% | 100% |  |  |  |  |  |  | 
N=C(NCCCCCCNC(=N)NC(=N)Nc1ccc(Cl)cc1)NC(=N)Nc1ccc(Cl)cc1.O=C(O)[C@H](O)[C@@H](O)[C@H](O)[C@H](O)CO.O=C(O)[C@H](O)[C@@H](O)[C@H](O)[C@H](O)CO [Chlorhexidine digluconate] |  |  |  |  | 0 ppm | 0 ppm |  |  |  | 100% | 100% | 100% | 0 ppm | 99% | 99% | 99% and 100%
